Measurements from patent US12251459B2, “Compositions, formulations, and methods for hair treatment” (Oddity Labs, LLC, priority 2022, dated 2025).

Tested on: human hair follicle dermal papilla cells (hFDPC)
Experiment: Human follicle dermal papilla cells (hFDPC) proliferation assay
Type: cell-based
Details: hFDPCs supplemented with BIO, BMP-2 and FGFβ
Text: In Table 8, A represents less than 20% of increased proliferation of hFDPCs, B represents 20-40%, and C represents larger than 40% of increased proliferation of hFDPCs.

| Structure (SMILES) | Percent Increase Proliferation of hFDPCs (%) |
| --- | --- |
| C=CCc1cc(/C=C2\C(=O)NC(=O)N(c3ccc(C(C)C)cc3)C2=O)cc(OC)c1O [I-1] | A (A represents less than 20% of increased proliferation of hFDPCs) |
| C=CCc1cc(/C=C2\C(=O)NC(=O)N(c3cc(C)cc(C)c3)C2=O)cc(OCC)c1O [I-2, 2,4,6(1H,3H,5H)-Pyrimidinetrione, 1-(3,5-dimethylphenyl)-5-[[3-ethoxy-4-hydroxy-5-(2-propen-1-yl)phenyl]methylene]-] | B (B represents 20-40%) |
| C=CCc1cc(/C=C2\C(=O)NC(=O)N(c3cc(C)cc(C)c3)C2=O)cc(OC)c1O [I-3, 2,4,6(1H,3H,5H)-Pyrimidinetrione, 1-(3,5-dimethylphenyl)-5-[[4-hydroxy-3-methoxy-5-(2-propen-1-yl)phenyl]methylene]-] | A (A represents less than 20% of increased proliferation of hFDPCs) |
| C=CCc1cc(/C=C2\C(=O)NC(=O)N(c3ccc(C)c(C)c3)C2=O)cc(OC)c1O [I-4] | A (A represents less than 20% of increased proliferation of hFDPCs) |
| COc1cc(/C=C2\C(=O)NC(=O)N(Cc3ccccc3)C2=O)cc(OC)c1O [I-5, 2,4,6(1H,3H,5H)-Pyrimidinetrione, 5-[(4-hydroxy-3,5-dimethoxyphenyl)methylene]-1-(phenylmethyl)-] | B (B represents 20-40%) |
| C=CCN1C(=O)NC(=O)/C(=C\c2ccc(OC)cc2OC)C1=O [I-6, 2,4,6(1H,3H,5H)-Pyrimidinetrione, 5-[(2,4-dimethoxyphenyl)methylene]-1-(2-propen-1-yl)-] | A (A represents less than 20% of increased proliferation of hFDPCs) |
| C=CCOc1ccc(/C=C2/C(=O)NC(=O)N(CC=C)C2=O)cc1OC [I-7] | A (A represents less than 20% of increased proliferation of hFDPCs) |
| C=CCc1cc(C=C2C(=O)NC(=S)NC2=O)cc(OCC)c1O [I-8] | B (B represents 20-40%) |
| C=CCc1cc(C=C2C(=O)NC(=S)NC2=O)cc(OC)c1O [I-9, 4,6(1H,5H)-Pyrimidinedione, dihydro-5-[[4-hydroxy-3-methoxy-5-(2-propen-1-yl)phenyl]methylene]-2-thioxo-] | B (B represents 20-40%) |
| C=CCc1cc(/C=C2\C(=O)NC(=S)N(C)C2=O)cc(OC)c1OCC [I-10] | A (A represents less than 20% of increased proliferation of hFDPCs) |
| COc1ccc(/C=C2\C(=O)NC(=O)N(C)C2=O)c(OC)c1 [I-11, 2,4,6(1H,3H,5H)-Pyrimidinetrione, 5-[(2,4-dimethoxyphenyl)methylene]-1-methyl-, (5E)-] | A (A represents less than 20% of increased proliferation of hFDPCs) |
| CCCCN1CCc2cc(/C=C3\C(=O)NC(=O)N(C)C3=O)ccc21 [I-12, 2,4,6(1H,3H,5H)-Pyrimidinetrione, 5-[(1-butyl-2,3-dihydro-1H-indol-5-yl)methylene]-1-methyl-] | B (B represents 20-40%) |
| CN1C(=O)NC(=O)/C(=C/c2cnc(N(C)C)nc2)C1=O [I-13, 2,4,6(1H,3H,5H)-Pyrimidinetrione, 5-[[2-(dimethylamino)-5-pyrimidinyl]methylene]-1-methyl-] | A (A represents less than 20% of increased proliferation of hFDPCs) |
| CN1C(=O)NC(=O)/C(=C\c2cccc(OCC(=O)O)c2)C1=O [I-14] | A (A represents less than 20% of increased proliferation of hFDPCs) |
| COc1cc([N+](=O)[O-])cc(/C=C2\C(=O)NC(=O)N(C)C2=O)c1O [I-15, 2,4,6(1H,3H,5H)-Pyrimidinetrione, 5-[(2-hydroxy-3-methoxy-5-nitrophenyl)methylene]-1-methyl-] | B (B represents 20-40%) |
| C=CCc1cc(/C=C2\C(=O)NC(=O)N(C)C2=O)cc(OC)c1O [I-16] | A (A represents less than 20% of increased proliferation of hFDPCs) |
| Cc1ccc(-c2nnc(N3CCN(C(=O)C4CCCCC4)CC3)c3ccccc23)cc1 [II-1, Methanone, cyclohexyl[4-[4-(4-methylphenyl)-1-phthalazinyl]-1-piperazinyl]-] | A (A represents less than 20% of increased proliferation of hFDPCs) |
| Cc1ccc(C(=O)N2CCN(c3nnc(-c4ccc(C)cc4)c4ccccc34)CC2)cc1 [II-2, Methanone, (4-methylphenyl)[4-[4-(4-methylphenyl)-1-phthalazinyl]-1-piperazinyl]-] | B (B represents 20-40%) |

| Structure (SMILES) | Percent Increase Proliferation of hFDPCs (%) |
| --- | --- |
| Cc1ccc(-c2nnc(N3CCN(S(C)(=O)=O)CC3)c3ccccc23)cc1 [II-3, Phthalazine, 1-(4-methylphenyl)-4-[4-(methylsulfonyl)-1-piperazinyl]-] | B (B represents 20-40%) |
| Cc1ccc(OCC(=O)N2CCN(c3nnc(-c4ccc(C)cc4)c4ccccc34)CC2)cc1 [II-5, Ethanone, 2-(4-methylphenoxy)-1-[4-[4-(4-methylphenyl)-1-phthalazinyl]-1-piperazinyl]-] | B (B represents 20-40%) |
| CCCC(=O)N1CCN(c2nnc(-c3ccc(C)cc3)c3ccccc23)CC1 [II-6, 1-Butanone, 1-[4-[4-(4-methylphenyl)-1-phthalazinyl]-1-piperazinyl]-] | B (B represents 20-40%) |
| COc1ccc(N2CCN(C(=O)c3cc(-c4cccs4)nc4ccccc34)CC2)cc1 [III-1, Methanone, [4-(4-methoxyphenyl)-1-piperazinyl][2-(2-thienyl)-4-quinolinyl]-] | A (A represents less than 20% of increased proliferation of hFDPCs) |
| Cc1cccc(Cn2cnc(NC(=O)c3cc(-c4cccnc4)nc4ccc(C)cc34)n2)c1 [III-2, 4-Quinolinecarboxamide, 6-methyl-N-[1-[(3-methylphenyl)methyl]-1H-1,2,4-triazol-3-yl]-2-(3-pyridinyl)-] | A (A represents less than 20% of increased proliferation of hFDPCs) |
| Cc1cc(C)n(Cc2ccc(NC(=O)c3cc(-c4ccc(C)c(C)c4)nc4ccccc34)cc2)n1 [III-3, 4-Quinolinecarboxamide, 2-(3,4-dimethylphenyl)-N-[4-[(3,5-dimethyl-1H-pyrazol-1-yl)methyl]phenyl]-] | B (B represents 20-40%) |
| CCOCCc1nnc(NC(=O)c2cc(-c3ccccc3)nc3ccccc23)s1 [III-4, 4-Quinolinecarboxamide, N-[5-(2-ethoxyethyl)-1,3,4-thiadiazol-2-yl]-2-phenyl-] | B (B represents 20-40%) |
| Cc1ccc(-c2cc(C(=O)NNC(=O)NC34CC5CC(CC(C5)C3)C4)c3ccccc3n2)c(C)c1 [III-5, 4-Quinolinecarboxylic acid, 2-(2,4-dimethylphenyl)-, 2-[(tricyclo[3.3.1.1^3,7]dec-1-ylamino)carbonyl]hydrazide] | A (A represents less than 20% of increased proliferation of hFDPCs) |
| CC(C)(C)Nc1nnc(SCc2cc(=O)oc3cc(O)ccc23)s1 [IV-1, 2H-1-Benzopyran-2-one, 4-[[[5-[(1,1-dimethylethyl)amino]-1,3,4-thiadiazol-2-yl]thio]methyl]-7-hydroxy-] | B (B represents 20-40%) |
| CSc1nnc(SCc2cc(=O)oc3cc(O)ccc23)s1 [IV-2, 2H-1-Benzopyran-2-one, 7-hydroxy-4-[[[5-(methylthio)-1,3,4-thiadiazol-2-yl]thio]methyl]-] | A (A represents less than 20% of increased proliferation of hFDPCs) |
| COc1ccccc1-n1c(SCc2cc(=O)oc3cc(O)ccc23)nc2ccccc2c1=O [IV-3, 4(3H)-Quinazolinone, 2-[[(7-hydroxy-2-oxo-2H-1-benzopyran-4-yl)methyl]thio]-3-(2-methoxyphenyl)-] | B (B represents 20-40%) |
| CCC(C)Cc1c(C)sc2[nH]c(SCc3cc(=O)oc4cc(O)ccc34)nc(=O)c12 (stereo not drawn) [IV-4, Thieno[2,3-d] pyrimidin-4(1H)-one, 2-[[(7-hydroxy-2-oxo-2H-1-benzopyran-4-yl)methyl]thio]-6-methyl-5-(2-methylbutyl)-] | A (A represents less than 20% of increased proliferation of hFDPCs) |
| Cc1ccc(Cn2ncc3c(N4CCCC4)ncnc32)cc1 [V-1, 1H-Pyrazolo[3,4-d] pyrimidine, 1-[(4-methylphenyl)methyl]-4-(1-pyrrolidinyl)-] | A (A represents less than 20% of increased proliferation of hFDPCs) |
| Cc1ccc(-n2ncc3c(N4CCCCC4)ncnc32)c(C)c1 [V-2, 1H-Pyrazolo[3,4-d] pyrimidine, 1-(2,4-dimethylphenyl)-4-(1-piperidinyl)-] | A (A represents less than 20% of increased proliferation of hFDPCs) |
| CC1CCCCN1c1nc(-c2ccccc2)nc2sc(-c3ccccc3)cc12 (stereo not drawn) [V-3, Thieno[2,3-d] pyrimidine, 4-(2-methyl-1-piperidinyl)-2,6-diphenyl-] | B (B represents 20-40%) |
| CCS(=O)(=O)N1CCN(c2ncnc3cc[nH]c23)CC1 [V-4, 5H-Pyrrolo[3,2-d] pyrimidine, 4-[4-(ethylsulfonyl)-1-piperazinyl]-] | A (A represents less than 20% of increased proliferation of hFDPCs) |
| O=C(C1CCN(S(=O)(=O)c2ccccc2)CC1)N1CCN(Cc2ccc3c(c2)OCO3)CC1 [VI-1, Methanone, [4-(1,3-benzodioxol-5-ylmethyl)-1-piperazinyl][1-(phenylsulfonyl)-4-piperidinyl]-] | A (A represents less than 20% of increased proliferation of hFDPCs) |
| N#Cc1ccc(S(=O)(=O)N2CCC(C(=O)N3CCN(Cc4ccc5c(c4)OCO5)CC3)CC2)cc1 [VI-2, Benzonitrile, 4-[[4-[[4-(1,3-benzodioxol-5-ylmethyl)-1-piperazinyl]carbonyl]-1-piperidinyl]sulfonyl]-] | B (B represents 20-40%) |
